How the values were obtained:
[1] = system: sAPP secretion in PC12h cells; assay: Stimulatory effects on sAPP secretion (Western blotting of culture supernatant); assay type: cell-based, rat; details: 5 hours after addition
Procedure: (§1) PC12h cells, a subspecies of rat-derived pheochromocytoma PC12 cells, were provided by the late Professor Hiroshi Hatanaka (Osaka University, Japan). Dulbecco's modified Eagle's medium (DMEM), phosphate buffered saline (PBS), HEPES (N-2-hydroxyethylpiperazine-N′-2-ethanesulfonic acid) buffer (pH 7.4), horse serum (HS) and a penicillin (5000 U/ml)/streptomycin (5 mg/ml) mixture were purchased from Gibco BRL. Fetal calf serum (FCS) was purchased from Bioscience PTY. Transferrin, insulin and progesterone were purchased from Sigma. The flasks used for culture were manufactured by Falcon, and the collagen-coated 96-well and 6-well multiwell plates used for assay were manufactured by Iwaki Glass Co., Ltd. (Japan). An LDH assay kit (LDH cytotoxic test Wako) and an anti-βAPP antibody 22C11 were purchased from Wako Pure Chemical Industries, Ltd. (Japan) and Chemicon, respectively. All other chemicals used were commercially available and of reagent grade.
PC12h cells were grown in DMEM culture medium supplemented with 10% FCS, 5% HS and penicillin/streptomycin, and then released by pipetting. The cells were seeded in collagen-coated 6-well plates at a confluency of 50% to 70% and allowed to stand for 1 day. On the following day, the wells were washed once with 10 mM HEPES/DMEM (1 ml) and then filled with 10 mM HEPES/DMEM culture medium (0.5 ml), followed by addition of Example No. 5 or 32. After 5 hours, the culture supernatant was collected from each well. Trichloroacetic acid (final concentration: 15%) was added to the culture supernatant to precipitate proteins, which were then concentrated. After addition of SDS-PAGE sample buffer (Daiichi Pure Chemicals Co., Ltd., Japan), each sample was boiled for 5 minutes, subjected to SDS-PAGE (10/20% gel, ATTO) and then transferred to a PVDF membrane (Bio-Rad Laboratories) at 2 mA/cm^2 for 60 minutes. […] An ECL Plus (Amersham) was used for detection and the signals were digitized by an LAS-1000 plus (Fuji film, Japan), followed by quantification with NIH-image software.

[2] = system: PC12h cells; assay: Inhibitory effects on glutamate-induced cell death (LDH activity of living cells); assay type: cell-based, rat; details: concentration of 1 μM, 72 hours
Procedure: as §1
PC12h cells were seeded in 96-well plates at a density of 2×10^4 cells/cm^2. […] After 72 hours, living cells were counted. Cell counts were determined as follows: after removal of the culture medium, living cells were solubilized in 0.1% Tween 20-containing PBS and assayed for LDH activity. The results were expressed as % of control, whose LDH activity was set to 100.

SMILES: COc1ccc(C(=O)N2c3ccccc3C(N3CCCc4ccccc43)CC2C)cc1OC (single isomer, unassigned; (-)) [Example 5, (−)-2,4-cis-1-(3,4-Dimethoxybenzoyl)-2-methyl-4-(1,2,3,4-tetrahydroquinolin-1-yl)-1,2,3,4-tetrahydroquinoline]
- increase in sAPP production compared to the control group ([1]; 10 nM concentration, averaged from triplicate wells): approximately 2.0 fold
- sAPP level in the culture medium as compared to the control group ([1]; Western blotting with anti-βAPP antibody 22C11): concentration-dependent increase
- inhibition of cell death induced by addition of 1 mM glutamic acid [2]: completely inhibited
